Data published in a melting point compilation (Tetko et al.; mined from patent text by program, amines drawn as free bases though some values may be those of a salt).

melting point	SMILES
265 to 270 °C	Cc1c(-c2ccccc2)sc2nc(NC3CCCCC3)[nH]c(=O)c12
216 to 218 °C	Cn1cc(-c2cccc(N3Cc4cc(C(C)(C)C)ccc4C3=O)c2CO)cc(Nc2ccncn2)c1=O
84.5 to 87 °C	Cc1cccc2c1nc(COc1ccc(Cl)cc1)n2CCC(C)CNCc1ccccc1 (racemic)
217 to 218 °C	CCc1nc2c(N)nc3ccccc3c2n1CC1(O)CCCCC1
135 to 136 °C	C=CCc1cc(C=CNC(C)=O)ccc1OCC1CO1 (configuration not stated)
198 °C	O=C(O)c1ccc(-n2nnnc2S)cc1
232 to 235 °C	COc1ccc(-c2nn(C(C)c3oc4ccccc4c(=O)c3-c3cccc(F)c3)c3ncnc(N)c23)cc1OC (configuration not stated)
126 to 127 °C	CC[Si](C)(C)NC(=O)c1ccc(N)cc1
137 °C	Cc1cc(-c2ccc(Cl)c(OC3SCC(O)C(O)C3O)c2)ccn1 (configuration not stated)
100 °C	CCS(=O)(=O)CC=Cc1ccccc1
160 to 162 °C	Cc1cc(C2=CC(c3cc(Cl)cc(Cl)c3)(C(F)(F)F)OC2)ccc1C(=O)OC(C)(C)C (configuration not stated)
123 °C	CCCCNC(=O)Oc1cccc(NC(=O)CC(=O)CCC)c1
95 to 97 °C	CCN(CC)C(=O)n1cc(C=O)c(S(=O)(=O)c2cccc(Cl)c2C)n1
148 to 150 °C	CC(C)OC(=O)c1cc(-n2c(=O)c3c(n(C)c2=O)CCC3)ccc1Cl
291 to 295 °C	CNc1ncc2c(-c3cccc(Cl)c3)cc(/C=C/C(=O)O)c(OC)c2n1
151 to 154 °C	Cc1cc(-c2ccc(F)cc2)n(-c2ccc(S(C)(=O)=O)cc2)c1
203 °C	Cc1ncn(-c2cc(F)ccc2CNC(=O)c2nc3n(c(=O)c2OCc2ccccc2)CCOC3(C)C)n1
130 to 140 °C	CCc1ncc([N+](=O)[O-])n1CCS(=O)(=O)CC
278 to 280 °C	CCNC(=O)c1cc(C(=O)O)cc(C(=O)NCC)n1
217 °C	CCCc1c(O)n2c3c(=O)n(C)c(=O)n(C)c3nc2n(Cc2ccccc2)c1=O
171 to 172 °C	CC(C(=O)NO)C(=O)N(c1ccccc1)c1ccccc1 (configuration not stated)
150 to 152 °C	O=C(O)C(=O)CC(=O)c1cccn1Cc1ccccc1-c1ccccc1
171 to 172 °C	Cc1cc(C)c(S(=O)(=O)NCC(O)(Cn2cncn2)c2ccc(Cl)cc2Cl)c(C)c1 (configuration not stated)
120 to 122 °C	CCCCCCCCCC(=O)N[C@@H](C)C(=O)N[C@@H](Cc1ccccc1)C(=O)OC

melting point	SMILES
136 to 139 °C	COc1cccc2c1nc(C1CC1)n2Cc1c(F)cccc1F
233 to 235 °C	CCCCCCCc1ccc(-c2nc(C)c(C(C)=NNC(=N)N)s2)cc1
195 to 196 °C	O=C1c2ccc(SCCO)cc2C(=O)c2cc3ccccc3cc21
134 °C	CSc1nn(C(=O)NC(C)(C)C)c(=O)n1N
143 to 145 °C	O=C1c2ccccc2C(=O)N1CCN1CCC(c2noc3cc(F)ccc23)CC1
176 to 177 °C	COP(=O)(Cc1ccc(NC(=O)/C=C/c2cnn(C)c2-c2ccoc2)cc1)OC
112 to 113 °C	CC1(C)CCC(C)(C)c2cc(C(C(N)=O)C(=O)Nc3ccc(C(=O)O)cc3)ccc21 (configuration not stated)
195 °C	Cc1c(NC(=O)c2ccc(OCC3CC3)cc2)ccc2cc(CN3CCC(C)(O)CC3)[nH]c12
245 to 247 °C	Cc1ccc(-c2nc3ccc(N)cn3c2CNC(=O)CC(C)C)cc1
89 to 90 °C	Cc1ccc(S(=O)(=O)NCCOS(=O)(=O)c2ccc(C)cc2)cc1
79 to 80 °C	CCCCc1nn(Cc2ccccc2C(=O)OC)c(=O)n1Cc1ccc(-c2ccccc2-c2nnn[nH]2)cc1
195 to 198 °C	COc1ccc(N2CCN(CC[C@H]3CC[C@H](NC(N)=O)CC3)CC2)c(Cl)c1Cl
228 to 230 °C	O=C(O)CCC(=O)N1CCc2cc(S(=O)(=O)N3CCN(c4cccc(Cl)c4)CC3)ccc21
190 to 192 °C	COc1ccc2c(c1)CCCC2n1cc[nH]c1=S (configuration not stated)
133 to 135 °C	OCCN(c1ccncc1F)n1ccc2ccccc21
150 to 152 °C	O=C(O)COc1ccc(-c2ccc(-c3c(Cc4ccccc4)sc4ccccc34)cc2)cc1Br
156 to 158 °C	CSC(C)(C)C(NS(=O)(=O)c1ccc(Oc2ccccc2)cc1)C(=O)O (configuration not stated)
118 to 120 °C	CC(NCCCO)c1ccc(C2CCC(N(C)C(=O)c3ccc(Cl)cc3)CC2)cc1 (configuration not stated)
130 to 132 °C	O=[N+]([O-])c1oc2ccccc2c1Br
182 °C	CCn1c(C=O)c(-c2ccc(F)cc2)c(C(C)C)c1C(=O)O
84 to 86 °C	CC1(C)CC(=O)c2ccc(OCCn3ccnc3)cc2O1
64 to 65 °C	CNC(=S)NCCCCCC1CCSS1 (configuration not stated)
254 °C	O=C(N[C@H]1CCN(C(=O)c2cc(Cl)cc(Cl)c2)[C@H](Cc2ccccc2)C1)c1cc2ccccc2[nH]1 (relative stereo)
188 °C	CC(C)Cc1ccc2c(c1O)C(=O)c1ccc(CC(C)C)c(O)c1C2=O

melting point	SMILES
172 °C	Cc1ccc(C(C#N)C=Cc2ccc(O)c(O)c2)cc1 (configuration not stated)
198 to 199 °C	CC(C)(C)c1ccnc(NC(=O)Nc2ccc(Oc3ccc(Cl)cc3)cc2)c1
58 to 60 °C	CCCCCOc1ccc(OCC(O)CC#CCCCC(=O)O)cc1 (configuration not stated)
143 to 145 °C	CCOc1ccc(C(CC(=O)OC)N2C(=O)c3ccc(N)cc3C2=O)cc1OCC (configuration not stated)
122 to 124 °C	CC(C)N1Cc2cncn2C(c2ccc(C#N)cc2)C1=O (configuration not stated)
83 to 85 °C	COc1ccc(OCCCCCN2CCN(Sc3ccc[nH]3)CC2)cc1
199 to 203 °C	Nc1ccc(C(=O)C(O)c2ccccc2)cc1 (configuration not stated)
131 to 132 °C	COC(=O)CCCCCNC(=O)C[C@H]1O[C@H](c2cccc(OC)c2OC)c2cc(Cl)ccc2N(CC(C)(C)CO)C1=O
205 to 210 °C	CC(C)=NN=C(N)Nc1c(Cl)cccc1Cl
243 to 248 °C	CS(=O)(=O)Nc1cccc(Nc2nc(N3CCC(O)C3)c3nc[nH]c3n2)c1 (configuration not stated)
218 to 221 °C	O=C(C=Cc1ccncc1)c1ccc([N+](=O)[O-])cc1
107 to 108 °C	CCSc1cc(C)nc(SCC)c1NC(=O)CN1CCN(CCSc2nc3cccc(C(F)(F)F)c3o2)CC1
176 to 178 °C	CCOC(=O)C(=CNCc1csnn1)C(=O)c1cc(F)c(F)cc1F
204 to 207 °C	CC(=O)N1CCN(Cc2ccc(CCn3cnc4cc(-c5ccc(Cl)cc5)sc4c3=O)cc2)C(=O)C1
230 to 236 °C	O=C(Nc1ccc2c(c1)OCCO2)NC12CC3CC(CC(C3)C1)C2
121 to 123 °C	COc1cc(Cl)ccc1N(Cc1cccnc1)S(C)(=O)=O
114 to 115 °C	CCCCc1c(/C=C/C(=O)Oc2ccc([N+](=O)[O-])cc2)ccc2ccc(OC)cc12
89 to 92 °C	O=C1OC(O)(c2ccccc2)C2(Cl)CCCCC12 (configuration not stated)
275 to 277 °C	O=C(O)c1cccc2c(Cl)c3ccccc3cc12
183 to 184 °C	CC(C(=O)O)c1ccc2c(c1)Cc1cccnc1O2 (configuration not stated)
50 to 58 °C	O=C(O)c1ccc(CCCOCCCCCCNCC(O)c2ccc(O)c(CO)c2)cc1 (configuration not stated)
216 to 217 °C	Oc1ccc(-c2cnccn2)cc1

SMILES	melting point
CCN(CC)C(=O)Cc1c(-c2ccc(Br)cc2)nc2c(C)cc(C)nn12	171 to 175 °C
CC1(C)CCC(C)(C)c2cc(-c3cccc(C#CC(=O)O)c3)ccc21	164 to 165 °C
Clc1cccc2c(CCN3CCCCC3)c(-c3ccccc3)[nH]c12	178 to 179 °C
COc1ccc([C@@H]2CCCC[C@@H]2N)cc1OC	80 to 81.5 °C
O=C1CCN(C(=O)c2cc(-c3ccccc3)c(=O)n3c2-c2sccc2CC3)CC1	218 to 220 °C
CCCCN1CCN2c3ccc(C)cc3C(c3ccco3)=[N+]([O-])CC2C1 (configuration not stated)	104 to 106 °C
CN1Cc2c(-c3nc(CCl)cs3)ncn2-c2ccc(F)c(Cl)c2C1=O	234 to 235 °C
